The text below walks through data of patent publication US5770590A, “Cyclic compounds, their prudiction and use” (Takeda Chemical Industries, Ltd., priority 1995, dated 1998).

The test system of assay [1] is plasma extravasation induced by capsaicin in trachea. The assay can be described thus: Inhibitory effect on plasma extravasation induced by capsaicin in trachea of guinea pigs. Format: in vivo, guinea pigs (Hartley type white male). As to conditions: Table 3, Dunnett's test *p < 0.05, **p < 0.01, ***p < 0.001. On the procedure:
[Inhibitory effect on plasma extravasation induced by capsaicin in trachea of guinea pigs] Guinea pigs (Hartley type white male guinea pige), (n=6) were anesthetized with 35 mg/kg of pentobarbital injected intraperitoneally (i.p.), then test compounds were administered intravenously (i.v.). After 5 minutes, a mixed solution of capsaicin (150 μg/kg) and Evans' blue dye (20 mg/kg) was administered intravenously to cause reaction. Ten minutes later, test animals were sacrificed by cutting the aorta, then perfused through pulmonary artery with 50 ml of physiological saline. The trachea was excised, and its wet weight was measure. The trachea was incubated at room temperature in 1 ml of acetone-0.3% sodium sulfate (7:3) overnight and Evans' blue dye was extracted from the trachea. The extract solution was centrifuged at 2800 rpm for 5 minutes. The amount of Evans' blue dye in the supernatant was quantified by measuring absorbance at […]. Plasma extravasation was expressed in terms of the amount of Evans' blue dye (μg) relative to the weight of the trachea (g). The efficacy of the drug was evaluated by calculating the % inhibition in accordance with the following formula, or expressed in terms of [formula] A: the amount of Evan's blue dye (μg/g) in each test animal B: The mean amount of Evan's blue dye (μg/g) of the group untreated with capsaicin.

For assay [2], the target named is T1, substance P receptor (receptor from human lymphoblast cells (IM-9)) (Homo sapiens, UniProt P25103).
T1 construct: The receptor was prepared from human lymphoblast cells (IM-9); endogenous in cells; host or cells: IM-9 human lymphoblast cells (crude membranes)
T1 sequence (P25103 whole entry): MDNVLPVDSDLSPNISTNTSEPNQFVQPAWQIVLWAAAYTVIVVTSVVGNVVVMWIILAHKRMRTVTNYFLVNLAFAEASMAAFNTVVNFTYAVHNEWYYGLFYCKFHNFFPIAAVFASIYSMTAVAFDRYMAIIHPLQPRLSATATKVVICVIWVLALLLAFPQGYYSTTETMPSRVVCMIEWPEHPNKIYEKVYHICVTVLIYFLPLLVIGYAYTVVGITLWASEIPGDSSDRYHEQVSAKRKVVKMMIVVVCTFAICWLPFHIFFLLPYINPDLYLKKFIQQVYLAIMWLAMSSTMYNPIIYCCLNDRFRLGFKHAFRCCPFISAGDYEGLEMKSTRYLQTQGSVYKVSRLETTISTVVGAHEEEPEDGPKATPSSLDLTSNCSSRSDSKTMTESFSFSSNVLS
In words: Radioligand receptor binding inhibitory activity using receptor from human lymphoblast cells (IM-9), 125I-BHSP. Conditions: Table 1, IM-9 receptor, 25° C., 30 minutes. The protocol:
The receptor was prepared from human lymphoblast cells (IM-9). IM-9 cells (2×10^5 cells/ml) were inoculated and incubated for 3 days (one liter), which was then subjected to centrifuge for 5 minutes at 500×g to obtain cell pellets.
After washing three times with 250 ul of 50 mM of Tris-HCl buffer (pH 7.4) containing 0.02% bovine serum albumin, the radioactivity remaining on the filter was determined with a gamma counter. Before use, the filter was immersed in 0.1% polyethyleneimine for 24 hours and air-dried.

On to `CC1CCn2c(c(-c3ccccc3)c3cccnc3c2=O)C(=O)N(Cc2cc(C(F)(F)F)cc(C(F)(F)F)c2)C1` (racemic) [Example 15, (+/-)-7-[3,5-Bis(trifluoromethyl)benzyl]-6,7,8,9,10,11-hexahydro-9-methyl-6,13-dioxo-5-phenyl-13H-[1,4]diazocino[2,1-g][1,7]naphthyridine], for which, in assay [1] (dose 10 μg/kg i.v.), the “Inhibition of plasma extravasation” value turned out to be 68.4%. Still for that read-out and setting: in the case of `Cc1ccc(-c2c3n(c(=O)c4ncccc24)CCC(C)CN(Cc2cc(C(F)(F)F)cc(C(F)(F)F)c2)C3=O)cc1` (racemic) [Example 16, (+/-)-7-[3,5-Bis(trifluoromethyl)benzyl]-6,7,8,9,10,11-hexahydro-9-methyl-5-(4-methylphenyl)-6,13-dioxo-13H-[1,4]diazocino[2,1-g][1,7]naphthyridine] it was 60.5%. For `Cc1ccc(-c2c3n(c(=O)c4ncccc24)C[C@@H](C)CN(Cc2cc(C(F)(F)F)cc(C(F)(F)F)c2)C3=O)cc1` [Example 14, (9S)-7-[3,5-Bis(trifluoromethyl)benzyl]-6,7,8,9,10,12-hexahydro-9-methyl-5-(4-methylphenyl)-6,12-dioxo[1,4]diazepino[2,1-g][1,7]naphthyridine], the half-maximal inhibitory concentration (IC50) (in general, the concentration that inhibits the measured activity by half) in assay [2] came to 0.28 nM.

For the compound `O=C1c2c(-c3ccccc3)ccnc2OCCCN1Cc1cc(C(F)(F)F)cc(C(F)(F)F)c1` [Example 22, 5-[3,5-Bis(trifluoromethyl)benzyl]-2,3,4,5-tetrahydro-6-oxo-7-phenyl-6H-pyrido[2,3-b][1,5]oxazocine], the “Inhibition of plasma extravasation” value in assay [1] (dose 100 μg/kg i.v.) was determined as 41.2%. `Cc1cnc2c(c1-c1ccccc1)C(=O)N(Cc1cc(C(F)(F)F)cc(C(F)(F)F)c1)CCO2` [Example 23, 4-[3,5-Bis(trifluoromethyl)benzyl]-2,3,4,5-tetrahydro-7-methyl-5-oxo-6-phenylpyrido[3,2-f][1,4]oxazepine]: the “Inhibition of plasma extravasation” value in assay [1] (dose 100 μg/kg i.v.) was found to be 64.0%.

As for `Cc1cnc2c(c1-c1ccccc1)C(=O)N(Cc1cc(C(F)(F)F)cc(C(F)(F)F)c1)CCCO2` [Example 24, 5-[3,5-Bis(trifluoromethyl)benzyl]-2,3,4,5-tetrahydro-8-methyl-6-oxo-7-phenyl-6H-pyrido[2,3-b][1,5]oxazocine], the “Inhibition of plasma extravasation” value in assay [1] (dose 100 μg/kg i.v.) was 53.1%.
